Measurements as given in patent US20260225997A1, “IONIZABLE AMINE LIPIDS” (Intellia Therapeutics, Inc., priority 2018, published 2026).
Read-outs that look alike come from different tables or passages of the source.

Key:
[1] = pKa measurement of unformulated amine lipid (fluorescence, method of Jayaraman et al.); type: physicochemical; conditions: 100 μM in 0.1 M phosphate buffer pH 4.5-9.0
Experimental: The pKa of each amine lipid was determined according to the method in Jayaraman, et al. (Angewandte Chemie, 2012) with the following adaptations. […] Lipid was diluted to 100 μM in 0.1 M phosphate buffer (Boston Bioproducts) where the pH ranged from 4.5-9.0. Fluorescence intensity was measured using excitation and emission wavelengths of 321 nm and 448 nm.

[2] = RNA encapsulation efficiency of LNP (Ribogreen fluorescence assay); type: physicochemical; conditions: G282 (TTR) 1:1 w/w, N:P 6.0
Experimental: A fluorescence-based assay (Ribogreen®, ThermoFisher Scientific) is used to determine total RNA concentration and free RNA. Encapsulation efficiency is calculated as (Total RNA−Free RNA)/Total RNA. LNP samples are diluted appropriately with 1× TE buffer containing 0.2% Triton-X 100 to determine total RNA or 1× TE buffer to determine free RNA. Standard curves are prepared by utilizing the starting RNA solution used to make the compositions and diluted in 1× TE buffer+/−0.2% Triton-X 100. Diluted RiboGreen® dye (according to the manufacturer's instructions) is then added to each of the standards and samples and allowed to incubate for approximately 10 minutes at room temperature, in the absence of light. A SpectraMax M5 Microplate Reader (Molecular Devices) is used to read the samples with excitation, auto cutoff and emission wavelengths set to 488 nm, 515 nm, and 525 nm respectively. Total RNA and free RNA are determined from the appropriate standard curves.
Encapsulation efficiency is calculated as (Total RNA−Free RNA)/Total RNA. The same procedure may be used for determining the encapsulation efficiency of a DNA-based cargo component. For single-strand DNA Oligreen Dye may be used, and for double-strand DNA, Picogreen Dye.

[3] = LNP average particle size and polydispersity by dynamic light scattering (Malvern Zetasizer); type: physicochemical; conditions: G282 1:1
Excerpt: The LNPs have a size of about 1 to about 1,000 nm, about 10 to about 500 nm, about 20 to about 500 nm, in a sub-embodiment about 50 to about 400 nm, in a sub-embodiment about 50 to about 300 nm, in a sub-embodiment about 50 to about 200 nm, and in a sub-embodiment about 50 to about 150 nm, and in another sub-embodiment about 60 to about 120 nm. Preferably, the LNPs have a size from about 60 nm to about 100 nm. The average sizes (diameters) of the fully formed LNP, may be measured by dynamic light scattering on a Malvern Zetasizer. The LNP sample is diluted in phosphate buffered saline (PBS) so that the count rate is approximately 200-400 kcps. The data is presented as a weighted average of the intensity measure.
The LNPs disclosed herein have a size (e.g. Z-average diameter) of about 1 to about 250 nm. In some embodiments, the LNPs have a size of about 10 to about 200 nm. In further embodiments, the LNPs have a size of about 20 to about 150 nm. In some embodiments, the LNPs have a size of about 50 to about 150 nm. In some embodiments, the LNPs have a size of about 50 to about 100 nm. In some embodiments, the LNPs have a size of about 50 to about 120 nm. In some embodiments, the LNPs have a size of about 60 to about 100 nm. In some embodiments, the LNPs have a size of about 75 to about 150 nm. In some embodiments, the LNPs have a size of about 75 to about 120 nm. In some embodiments, the LNPs have a size of about 75 to about 100 nm. Unless indicated otherwise, all sizes referred to herein are the average sizes (diameters) of the fully formed nanoparticles, as measured by dynamic light scattering on a Malvern Zetasizer. The nanoparticle sample is diluted in phosphate buffered saline (PBS) so that the count rate is approximately 200-400 kcps. The data is presented as a weighted-average of the intensity measure (Z-average diameter).
Dynamic Light Scattering (“DLS”) is used to characterize the polydispersity index (“pdi”) and size of the LNPs of the present disclosure. DLS measures the scattering of light that results from subjecting a sample to a light source. PDI, as determined from DLS measurements, represents the distribution of particle size (around the mean particle size) in a population, with a perfectly uniform population having a PDI of zero.
LNP compositions are analyzed for average particle size, polydispersity index (pdi), total RNA content, encapsulation efficiency of RNA, and zeta potential. LNP compositions may be further characterized by lipid analysis, AF4-MALS, NTA, and/or cryo-EM. Average particle size and polydispersity are measured by dynamic light scattering (DLS) using a Malvern Zetasizer DLS instrument. LNP samples were diluted with PBS buffer prior to being measured by DLS. Z-average diameter which is an intensity-based measurement of average particle size was reported along with number average diameter and pdi. A Malvern Zetasizer instrument is also used to measure the zeta potential of the LNP. Samples are diluted 1:17 (50 μL into 800 μL) in 0.1×PBS, pH 7.4 prior to measurement.

TTR [4] = assay: TTR editing in mouse liver by NGS after i.v. LNP delivery of Cas9 mRNA and sgRNA; type: in vivo; conditions: CD-1 female mice, G282 1:1
Experimental: Preparations of various LNP compositions were prepared with amine lipids. In assays for percent liver editing in mice, Cas9 mRNA and chemically modified sgRNA were formulated in LNPs, at either a 1:1 w/w ratio or a 1:2 w/w ratio. LNPs are formulated with a composition of a given ionizable lipid (e.g. an amine lipid), DSPC, cholesterol, and PEG-2k-DMG, with a 6.0 N:P ratio.
(§1) CD-1 female mice, ranging from 6-10 weeks of age were used in each study. Animals were weighed and grouped according to body weight for preparing dosing solutions based on group average weight. LNPs were dosed via the lateral tail vein in a volume of 0.2 mL per animal (approximately 10 mL per kilogram body weight). The animals were periodically observed post dose for adverse effects for at least 24 hours post dose. Animals were euthanized at 6 or 7 days by exsanguination via cardiac puncture under isoflurane anesthesia. Blood was collected into serum separator tubes or into tubes containing buffered sodium citrate for plasma as described herein. For studies involving in vivo editing, liver tissue was collected from each animal for DNA extraction and analysis.
Cohorts of mice were measured for liver editing by Next-Generation Sequencing (NGS).
In brief, to quantitatively determine the efficiency of editing at the target location in the genome, genomic DNA was isolated and deep sequencing was utilized to identify the presence of insertions and deletions introduced by gene editing.
PCR primers were designed around the target site (e.g., B2M), and the genomic area of interest was amplified. Additional PCR was performed according to the manufacturer's protocols (Illumina) to add the necessary chemistry for sequencing. The amplicons were sequenced on an Illumina MiSeq instrument. The reads were aligned to the […] after eliminating those having low quality scores. The resulting files containing the reads were mapped to the reference genome (BAM files), where reads that overlapped the target region of interest were selected and the number of wild type reads versus the number of reads which contain an insertion, substitution, or deletion was calculated.
The editing percentage (e.g., the “editing efficiency” or “percent editing”) is defined as the total number of sequence reads with insertions or deletions over the total number of sequence reads, including wild type.
CD-1 female mice were dosed i.v. at 0.1 mpk or 0.3 mpk. At 6 days post-dose, animals were sacrificed. For animals dosed with G282 targeting TTR, blood and the liver were collected and serum TTR and editing were measured. For animals dosed with G650 targeting B2M, liver was collected and editing was measured.

TTR [5] = assay: Transthyretin (TTR) ELISA analysis of mouse serum after LNP dosing; type: in vivo; conditions: G282 1:1; for response vs control in vivo at 0.1 mg/kg / inhibition in vivo at 0.03 mg/kg: Mus musculus, iv; for response vs control in vivo at 0.1 mg/kg: read-out: Serum TTR % TSS; for inhibition in vivo at 0.03 mg/kg: read-out: Serum TTR (% KD)
Experimental: as §1
CD-1 female mice were dosed i.v. at 0.1 mpk or 0.3 mpk. […] For animals dosed with G282 targeting TTR, blood and the liver were collected and serum TTR and editing were measured. For animals dosed with G650 targeting B2M, liver was collected and editing was measured.
Blood was collected and the serum was isolated as indicated. The total mouse TTR serum levels were determined using a Mouse Prealbumin (Transthyretin) ELISA Kit (Aviva Systems Biology, Cat. OKIA00111). Briefly, sera were serial diluted with kit sample diluent to a final dilution of 10,000-fold for 0.1 mpk dose and 2,500-fold for 0.3 mpk. This diluted sample was then added to the ELISA plates and the assay was then carried out according to directions.

[6] = Example 59: 0.1 mpk i.v., 7 days post-dose
[7] = Example 64: Dose 0.03 mpk (table) i.v., 7 days post-dose
[8] = 168 h, Example 64: Dose 0.03 mpk (table) i.v., 7 days post-dose
[9] = Example 58: 0.1 mpk i.v., 6 days post-dose

SMILES | pKa [1] | Encapsulation (%) ([2]; Table 26, Example 64: LNP) | Num Ave Size (nm) ([3]; Table 26, Example 64: LNP) | PDI ([3]; Table 26, Example 64: LNP) | Z-Ave Size (nm) ([3]; Table 26, Example 64: LNP) | Editing Mean % Indel (TTR [4]; [7]) [%] | Serum TTR (TTR [5]; [7]) [µg/mL] | inhibition in vivo at 0.03 mg/kg (TTR [5]; [8]) [%] | other results
CCCCCCCCCOC(=O)CCCCCCCN(CCO)CCCCCCC(OCCCCCCC)OCCCCCCC [Compound 20, nonyl 8-((7,7-bis(heptyloxy)heptyl)(2-hydroxyethyl)amino)octanoate] | 5.81 | – | – | – | – | – | – | – | Encapsulation (%) ([2]; Table 16, Example 59: LNP): 83%; Num Ave Size (nm) ([3]; Table 16, Example 59: LNP): 58.65 nm; PDI ([3]; Table 16, Example 59: LNP): 0.102; Z-Ave Size (nm) ([3]; Table 16, Example 59: LNP): 84.49 nm; Editing Mean % Indel (TTR [4]; [6]): 35.0%; Serum TTR (TTR [5]; [6]): 210 µg/mL; response vs control in vivo at 0.1 mg/kg (TTR [5]; 168 h, Example 59: 0.1 mpk i.v., 7 days post-dose): 23%
CCCCCCCCCOC(=O)CCCCCCCN(CCCCCCC(OCCCCCCCC)OCCCCCCCC)CCCNC(=O)OC [Compound 43, nonyl 8-((7,7-bis(octyloxy)heptyl)(3-((methoxycarbonyl)amino)propyl)amino)octanoate] | 6.02 | 94 | 56 | 0.05 | 74 | 8.6 | 619.2 | -8.1 | –
CCCCCCCCOC(CCCCCCCN(CCO)CCCCCCCCCC(=O)OCCCCCCC)OCCCCCCCC [Compound 11, heptyl 10-((8,8-bis(octyloxy)octyl)(2-hydroxyethyl)amino)decanoate] | 6.35 | – | – | – | – | – | – | – | Encapsulation (%) ([2]; Table 14, Example 58: LNP): 86%; Num Ave Size (nm) ([3]; Table 14, Example 58: LNP): 54.58 nm; PDI ([3]; Table 14, Example 58: LNP): 0.137; Z-Ave Size (nm) ([3]; Table 14, Example 58: LNP): 89.3 nm; Editing Mean % Indel (TTR [4]; [9]): 29.4%; Serum TTR (TTR [5]; [9]): 553 µg/mL; response vs control in vivo at 0.1 mg/kg (TTR [5]; 144 h, Example 58: 0.1 mpk i.v., 6 days post-dose): 56%
CCCCCCCCCOC(=O)CCCCCCCN(CCCCCCC(OCCCCCCCC)OCCCCCCCC)CCCOC(=O)NC [Compound 40, nonyl 8-((7,7-bis(octyloxy)heptyl)(3-((methylcarbamoyl)oxy)propyl)amino)octanoate] | 5.71 | 96 | 64 | 0.06 | 83 | 27.5 | 417.0 | 27.2 | –
CCCCCCCCCOC(=O)CCCCCCCN(CCCCCCC(OCCCCCCCC)OCCCCCCCC)CCCNC(=O)NC [Compound 46, nonyl 8-((7,7-bis(octyloxy)heptyl)(3-(3-methylureido)propyl)amino)octanoate] | 7.64 | 98 | 86 | 0.03 | 104 | 8.7 | 514.6 | 10.1 | –
CCCCCCCCCOC(=O)CCCCCCCN(CCCCCCC(OCCCCCCCC)OCCCCCCCC)CCNC(=O)OC [Compound 44, nonyl 8-((7,7-bis(octyloxy)heptyl)(2-((methoxycarbonyl)amino)ethyl)amino)octanoate] | 5.62 | 59 | 92 | 0.25 | 185 | 7.9 | 603.9 | -5.5 | –
